EP0676201B1, “Use of a riminophenazine for treating MDR resistance” (priority 1994, dated 1995)
≈ marks a conversion by molar mass, not a printed value. Where two headings read alike, the source gives them in different places.

Test system: K562/MMB
Assay: MTT assay, 7-day exposure to riminophenazines alone or with fixed doxorubicin or vinblastine (Example 4)
Type: cell-based
Settings: Homo sapiens, K562, 168 h
[1] = in the presence of doxorubicin (12 ng/ml), read-out: IC 50 of riminophenazine, Doxorubicin
[2] = in the presence of vinblastine (3 ng/ml), read-out: IC 50 of riminophenazine, Vinblastine
[3] = riminophenazine alone, mean of 2 experiments, read-out: IC 50 of riminophenazine, None

Text: A third cell line (562/MMB) used was a MDR leukemia cell line selected in vitro by progressive exposure to increasing concentrations of vinblastine in order to increase P-glycoprotein expression. […] This cell line expresses high levels of P-glycoprotein as determined by flowcytometry using the monoclonal antibody (MRK 16) against this molecule.
The effects were examined of a 7-day exposure of selected compounds on the sensitivity of the cell line (K562/MMB) to the standard chemotherapeutic agents doxorubicin and vinblastine, using the MTT assay.
The cells were seeded at 1 x 10^4 cells per well in 96 well microlitre plates in a volume of 200 µl of RPMI 1640 medium containing 10 % fetal calf serum and incubated with doxorubicin (12.5 ng/ml) or vinblastine (3 ng/ml). The amounts of MDR modulators used were 0.03, 0.06, 0.125, 0.5, 1.0 and 2.0 µg/ml.
After incubation at 37 °C for 7 days, 20 µl MTT (i.e. 3-[4,5-dimethylthiazol-2-yl]2,5-diphenyl-tetrazolium bromide) at 5 mg/ml was added to each well and the plates incubated for a further 4 hours. The cells were washed with phosphate buffered saline and the intracellular formazan crystals solubilized with dimethylsulphoxide, and the absorbency measured spectrophotometrically at a test wavelength of 540 nm and a reference wavelength of 620 nm.

| SMILES | IC50 [1] [µg/mL] | IC50 [2] [µg/mL] | IC50 [3] [µg/mL] |
| --- | --- | --- | --- |
| CC1(C)CC(N=c2cc3n(-c4ccccc4)c4ccccc4nc-3cc2Nc2ccccc2)CC(C)(C)N1 [Compound B3962, N,5-bis(phenyl)-3,5-dihydro-3-[(2',2',6',6'-tetramethyl-4-piperidyl)imino]-2-phenazinamine] | 0.159 | 0.07 | 0.285 (≈ 0.568 µM) |
| Cc1ccc(Nc2cc3nc4ccccc4n(-c4ccc(C)cc4)c-3cc2=NC2CCNCC2)cc1 [Compound B4070, N,5-bis(4-methylphenyl)-3,5-dihydro-3-[(4-piperidyl)imino]-2-phenazinamine] | 0.193 | 0.054 | 0.159 (≈ 0.336 µM) |
| CC1(C)CC(N=c2cc3n(-c4ccc(Cl)cc4)c4ccc(Cl)cc4nc-3cc2Nc2ccc(Cl)cc2)CC(C)(C)N1 [Compound B4090] | 0.139 | < 0.05 | 0.197 (≈ 0.326 µM) |
| CC1(C)CC(N=c2cc3n(-c4ccc(Cl)c(Cl)c4)c4ccccc4nc-3cc2Nc2ccc(Cl)c(Cl)c2)CC(C)(C)N1 [Compound B4100] | 0.278 | 0.095 | 0.335 (≈ 0.524 µM) |
| CC1(C)CC(N=c2cc3n(-c4ccc(C(F)(F)F)cc4)c4ccccc4nc-3cc2Nc2ccc(C(F)(F)F)cc2)CC(C)(C)N1 [Compound B4103, N,5-bis(4-trifluoromethylphenyl)-3,5-dihydro-3[(2',2',6',6'-tetramethyl-4-piperidyl)imino]-2-phenazinamine] | 0.269 | 0.051 | 0.351 (≈ 0.55 µM) |
| CC1(C)CC(N=c2cc3n(-c4cc(Cl)cc(Cl)c4)c4ccccc4nc-3cc2Nc2cc(Cl)cc(Cl)c2)CC(C)(C)N1 [Compound B4121] | 0.722 |  | 2.25 (≈ 3.52 µM) |
| CC1(C)CC(N=c2cc3n(-c4cccc(Cl)c4)c4ccc(Cl)cc4nc-3cc2Nc2cccc(Cl)c2)CC(C)(C)N1 [Compound B4123, N,5-bis(3-chlorophenyl)-8-chloro-3,5-dihydro-3[(2,2',6',6'-tetramethyl-4-piperidyl)-imino]-2-phenazinamine] | 0.181 | < 0.05 | 0.333 (≈ 0.55 µM) |
| CC1(C)CC(N=c2cc3n(-c4cccc(C(F)(F)F)c4)c4ccccc4nc-3cc2Nc2cccc(C(F)(F)F)c2)CC(C)(C)N1 [Compound B4126, N,5-bis(3-trifluoromethyl-4-phenyl)-3,5-dihydro-3-[(2',2',6',6'-tetramethyl-4-piperidyl)-imino]-2-phenazinamine] | 0.246 | 0.071 | 0.316 (≈ 0.496 µM) |
| CC1(C)CC(N=c2cc3n(-c4cccc(C(F)(F)F)c4)c4ccc(Cl)cc4nc-3cc2Nc2cccc(C(F)(F)F)c2)CC(C)(C)N1 [Compound B4127, N,5-bis(3-trifluoromethylphenyl)-8-chloro-3,5-dihydro-3-[(2',2',6',6'-tetramethyl-4-piperidyl)-imino]-2-phenazinamine] | 0.168 | 0.07 | 0.425 (≈ 0.632 µM) |
| CC1(C)CC(N=c2cc3n(-c4ccc(Cl)cc4Cl)c4ccccc4nc-3cc2Nc2ccc(Cl)cc2Cl)CC(C)(C)N1 [Compound B4128] | 0.215 | 0.059 | 0.383 (≈ 0.599 µM) |
| CCN(CC)CCCN=c1cc2n(-c3ccc(Cl)c(Cl)c3)c3ccccc3nc-2cc1Nc1ccc(Cl)c(Cl)c1 [Compound B4154] | 0.296 | 0.118 | 0.353 (≈ 0.575 µM) |
| CC(C)c1ccc(Nc2cc3nc4ccccc4n(-c4ccc(C(C)C)cc4)c-3cc2=NC2CC(C)(C)NC(C)(C)C2)cc1 [Compound B4158, N,5-bis(4-isopropylphenyl)-3,5-dihydro-3-[(2',2',6',6'-tetramethyl-4-piperidyl)-imino]-2-phenazinamine] | 0.155 | 0.058 | 0.272 (≈ 0.464 µM) |
| CC(C)c1ccc(Nc2cc3nc4cc(Cl)ccc4n(-c4ccc(C(C)C)cc4)c-3cc2=NC2CC(C)(C)NC(C)(C)C2)cc1 [Compound B4159, N,5-bis(4-isopropylphenyl)-8-chloro-3,5-dihydro-3-[(2',2',6',6'-tetramethyl-4-piperidyl)-imino]-2-phenazinamine] | 0.514 | 0.13 | 0.912 (≈ 1.47 µM) |
